# Experimental data reported in patent publication US20260062422A1 (Halda Therapeutics OpCo, Inc., priority 2022, published 2026).
# Columns and labels:
# [1] = system: T-Rex 293 cell line SC3 cells lacking increased expression of androgen receptor protein; experiment: Cellular growth inhibition, T-Rex 293 SC3 cells without doxycycline, CellTiter-Glo; assay type: cell-based; settings: T-Rex 293 SC3 cells not exposed to doxycycline; 72 hours; CellTiter-Glo 2.0
# Summary of the method: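 GI50 came from a four-parameter fit of CellTiter-Glo 2.0 luminescence after 72 h compound exposure (0.5% DMSO, 37 °C), dosing 24 h post-seeding. SC3 clone cells (2500/well), transfected with wild-type androgen receptor, grew in charcoal-stripped serum medium lacking phenol red, induced with 10 ng/mL doxycycline or left uninduced.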
# [2] = system: T47D cells; experiment: Cellular growth inhibition assay for T47D cells, CellTiter-Glo; assay type: cell-based, human; settings: 72 hours treatment, CellTiter-Glo 2.0 cell viability
# Summary of the method: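 Cells are plated at 3000/well and allowed 24 h before treatment. Test compound in medium containing 0.5% DMSO is then added, with DMSO-only wells as negative control, and plates are incubated 72 h at 37 °C. ATP luminescence (CellTiter-Glo 2.0) is then fitted to four parameters to derive GI50.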
GI50 [2] [nM],"GI50 ([2]; Homo sapiens, T47D, 72 h) [nM]",Compound,GI50 [1] [nM]
< 500,–,Cc1sc2c(c1C)C(c1ccc(CC3CC4(CCN(c5ccc(C(=O)N[C@H]6C(C)(C)[C@H](Oc7ccc(C#N)c(Cl)c7)C6(C)C)cn5)CC4)C3)cc1)=N[C@@H](Cc1ncco1)c1nnc(C)n1-2 [Compound I-143],< 500
–,< 500,Cc1sc2c(c1C)C(c1ccc(N3CC(N4CCN(c5ncc(C(=O)N[C@H]6C(C)(C)[C@H](Oc7ccc(C#N)c(Cl)c7)C6(C)C)cn5)CC4)C3)cc1)=NC(Cc1ncco1)c1nnc(C)n1-2 (stereo partly shown) [Compound I-208],< 500
